According to patent US20160090556A1, “PRODUCTS COMPRISING MALODOR REDUCTION MATERIALS” (The Procter & Gamble Company, priority 2014, published 2016):
Where two headings read alike, the source gives them in different places.

Assay: Liquid dish neat product liquid-air partition coefficient
Format: physicochemical
Settings: for Comment Code: Log of liquid dish neat product liquid-air partition coefficient: code letters K, L
[1] = class code letter within Comment Code

Compound | Log of liquid dish neat product liquid-air partition coefficient (Comment Code K/L) [1] | Comment Code: Log of liquid dish neat product liquid-air partition coefficient | Log of liquid dish neat product liquid-air partition coefficient (Comment Code K/L)
CC(C)=CCCC(C)=CCC1CCCC1=O (stereo not drawn) [Material 307] | K (Log of liquid dish neat product liquid-air partition coefficient greater than or equal to −7) | – | –
CCCOC(=O)[C@H](C)OC(C)(C)CC [Material 1030] | – | K (Log of liquid dish neat product liquid-air partition coefficient greater than or equal to −7) | –
CCOCOC1CCCCCCCCCCC1 [Material 607] | – | – | K (Log of liquid dish neat product liquid-air partition coefficient greater than or equal to −7)
OC1CCC2CCCCC2C1 (stereo not drawn) [Material 474] | K (Log of liquid dish neat product liquid-air partition coefficient greater than or equal to −7) | – | –
CC(CCO)CCCC(C)(C)O (stereo not drawn) [Material 249] | K (Log of liquid dish neat product liquid-air partition coefficient greater than or equal to −7) | – | –
CC(=O)OC(C)(C)C1CC=C(C)CC1 (stereo not drawn) [Material 687] | – | K (Log of liquid dish neat product liquid-air partition coefficient greater than or equal to −7) | –
CC(=O)OC(C)CC/C=C(\C)CCC=C(C)C (stereo not drawn) [Material 890] | – | – | K (Log of liquid dish neat product liquid-air partition coefficient greater than or equal to −7)
CC(C)C1=CCC(C)(O)CC1 (stereo not drawn) [Material 982] | – | – | K (Log of liquid dish neat product liquid-air partition coefficient greater than or equal to −7)
O=C1CCC=CCCCCCCCCCC1 [Material 371] | K (Log of liquid dish neat product liquid-air partition coefficient greater than or equal to −7) | – | –
CC(C)=CCCC(C)c1ccc(C)cc1 (stereo not drawn) [Material 713] | – | – | K (Log of liquid dish neat product liquid-air partition coefficient greater than or equal to −7)
CC(C)=CCC/C(C)=C/CC/C(C)=C/CO [Material 1065] | – | – | K (Log of liquid dish neat product liquid-air partition coefficient greater than or equal to −7)
C=CC(C)=CCCC(C)(C)O [Material 43] | K (Log of liquid dish neat product liquid-air partition coefficient greater than or equal to −7) | – | –
CC(C)C(=O)OCc1ccccc1 [Material 647] | – | K (Log of liquid dish neat product liquid-air partition coefficient greater than or equal to −7) | –
C[C@@H]1CCC=C2CC[C@@H](C(C)(C)O)C[C@]21C [Material 1107] | – | K (Log of liquid dish neat product liquid-air partition coefficient greater than or equal to −7) | K (Log of liquid dish neat product liquid-air partition coefficient greater than or equal to −7)
CC(C)=CCC/C(C)=C\CO [Material 64] | K (Log of liquid dish neat product liquid-air partition coefficient greater than or equal to −7) | – | –
CCOC(=O)C1C(CC)=CCCC1(C)C (stereo not drawn) [Material 294] | K (Log of liquid dish neat product liquid-air partition coefficient greater than or equal to −7) | – | –
CCCCCOC(=O)C=Cc1ccccc1 [Material 671] | – | – | K (Log of liquid dish neat product liquid-air partition coefficient greater than or equal to −7)
C=C(C)C1CCC2(C)CCC=C(C)C2C1 (stereo not drawn) [Material 774] | – | – | K (Log of liquid dish neat product liquid-air partition coefficient greater than or equal to −7)
Cc1cccc(Oc2ccccc2)c1 [Material 114] | K (Log of liquid dish neat product liquid-air partition coefficient greater than or equal to −7) | – | –
CC(C)=CCCC(C)=CCCc1ccncc1 [Material 135] | K (Log of liquid dish neat product liquid-air partition coefficient greater than or equal to −7) | – | –
Cc1ccc2c(c1)CC(C)(CO)C2 (stereo not drawn) [Material 161] | K (Log of liquid dish neat product liquid-air partition coefficient greater than or equal to −7) | – | –
CC(C)C(=O)OC1CC2CCC1(C)C2(C)C (stereo not drawn) [Material 229] | K (Log of liquid dish neat product liquid-air partition coefficient greater than or equal to −7) | K (Log of liquid dish neat product liquid-air partition coefficient greater than or equal to −7) | –
COC(=O)C=Cc1ccccc1 [Material 117] | K (Log of liquid dish neat product liquid-air partition coefficient greater than or equal to −7) | – | –
CC(O)CCC1C(C)CCCC1(C)C (stereo not drawn) [Material 1052] | – | K (Log of liquid dish neat product liquid-air partition coefficient greater than or equal to −7) | –
CC1CC2CCC3C(C2O1)C(C)(C)C(C)C3(C)C (stereo not drawn) [Material 1097] | – | K (Log of liquid dish neat product liquid-air partition coefficient greater than or equal to −7) | K (Log of liquid dish neat product liquid-air partition coefficient greater than or equal to −7)

Compound | Log of liquid dish neat product liquid-air partition coefficient (Comment Code K/L) [1] | Comment Code: Log of liquid dish neat product liquid-air partition coefficient | Log of liquid dish neat product liquid-air partition coefficient (Comment Code K/L)
CCCCCCCCCCCCCC(=O)OC(C)C [Material 196] | K (Log of liquid dish neat product liquid-air partition coefficient greater than or equal to −7) | – | –
CC1=C(C/C=C(\C)C=O)C(C)(C)CCC1 [Material 602] | – | K (Log of liquid dish neat product liquid-air partition coefficient greater than or equal to −7) | –
CC(C)(O)CCC1CCCCC1 [Material 496] | – | K (Log of liquid dish neat product liquid-air partition coefficient greater than or equal to −7) | –
C=C(C)C1CCC(C)(OC(C)=O)CC1 (stereo not drawn) [Material 611] | – | – | K (Log of liquid dish neat product liquid-air partition coefficient greater than or equal to −7)
C=CCCCCCCCCO [Material 470] | K (Log of liquid dish neat product liquid-air partition coefficient greater than or equal to −7) | – | –
C/C=C1/CC2CC1C1CCC(=O)OC21 (stereo not drawn) [Material 353] | K (Log of liquid dish neat product liquid-air partition coefficient greater than or equal to −7) | K (Log of liquid dish neat product liquid-air partition coefficient greater than or equal to −7) | –
CCCCCCCC1CCCC(=O)O1 (stereo not drawn) [Material 463] | K (Log of liquid dish neat product liquid-air partition coefficient greater than or equal to −7) | – | –
CC=Cc1ccc(O)c(OC)c1 [Material 214] | – | K (Log of liquid dish neat product liquid-air partition coefficient greater than or equal to −7) | –
CC(C)(O)Cc1ccccc1 [Material 649] | – | – | K (Log of liquid dish neat product liquid-air partition coefficient greater than or equal to −7)
CC/C=C\C/C=C\CCO [Material 546] | K (Log of liquid dish neat product liquid-air partition coefficient greater than or equal to −7) | – | –
CC1C(C)(C)C2CCC3CC(C)(C)OC3C2C1(C)C (stereo not drawn) [Material 680] | – | K (Log of liquid dish neat product liquid-air partition coefficient greater than or equal to −7) | K (Log of liquid dish neat product liquid-air partition coefficient greater than or equal to −7)
CCC(=O)OC(C)(C)C1CC=C(C)CC1 (stereo not drawn) [Material 686] | – | – | K (Log of liquid dish neat product liquid-air partition coefficient greater than or equal to −7)
CCOC(=O)C=Cc1ccccc1 [Material 400] | – | K (Log of liquid dish neat product liquid-air partition coefficient greater than or equal to −7) | –
C/C=C(\C)C(=O)OCCc1ccccc1 [Material 960] | – | K (Log of liquid dish neat product liquid-air partition coefficient greater than or equal to −7) | –
CCCCCCCC(=O)OCc1ccco1 [Material 336] | K (Log of liquid dish neat product liquid-air partition coefficient greater than or equal to −7) | – | –
COc1ccc(CC(C)C=O)cc1 (stereo not drawn) [Material 586] | – | – | K (Log of liquid dish neat product liquid-air partition coefficient greater than or equal to −7)
C=C(C)C1CC=C(C)C(OC(C)=O)C1 (stereo not drawn) [Material 577] | – | – | K (Log of liquid dish neat product liquid-air partition coefficient greater than or equal to −7)
CC1=CCC(CCC(C)CO)C1(C)C (stereo not drawn) [Material 600] | – | – | K (Log of liquid dish neat product liquid-air partition coefficient greater than or equal to −7)
C=CCc1ccc2c(c1)OCO2 [Material 1021] | – | – | K (Log of liquid dish neat product liquid-air partition coefficient greater than or equal to −7)
CC(C)c1ccc(CC=O)cc1 [Material 977] | – | K (Log of liquid dish neat product liquid-air partition coefficient greater than or equal to −7) | –
CC(C)C(=O)OCCc1ccccc1 [Material 958] | – | K (Log of liquid dish neat product liquid-air partition coefficient greater than or equal to −7) | –
c1ccc2occc2c1 [Material 493] | K (Log of liquid dish neat product liquid-air partition coefficient greater than or equal to −7) | – | –
CC(C=O)=Cc1ccccc1 [Material 701] | – | K (Log of liquid dish neat product liquid-air partition coefficient greater than or equal to −7) | –
C=CC(C)(CCC=C(C)C)OC(C)=O (stereo not drawn) [Material 154] | – | K (Log of liquid dish neat product liquid-air partition coefficient greater than or equal to −7) | –
